What all share (assay type): in vivo
Experiment [1] has as its system Lolium perenne (LOLPE). Kind of experiment: Example B pre-emergence herbicidal test, LOLPE. Particulars: Lolium perenne, 312 h, rate 250 g/ha, evaluated after 13 days, 100=total damage to plant, 0=no damage to plant. The method in brief:
(§1)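 Pots sown, sprayed day 1 pre-emergence; spray: aqueous dilution of formulation in acetone/water 50:50 + 0.5% Tween 20. Glasshouse 24/16° C, 14 h light, 65% RH, watering twice daily. Visual damage rating at 13 d, 0–100 scale.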

Experiment [2] relates to Alopecurus myosuroides (ALOMY). Kind of experiment: Example B pre-emergence herbicidal test, ALOMY. Particulars: Alopecurus myosuroides, 312 h, rate 250 g/ha, evaluated after 13 days, 100=total damage to plant, 0=no damage to plant. In short, it runs like this: as §1
For experiment [3], the system named is Echinochloa crus-galli (ECHCG). Kind of experiment: Example B pre-emergence herbicidal test, ECHCG. Particulars: Echinochloa crus-galli, 312 h, rate 250 g/ha, evaluated after 13 days, 100=total damage to plant, 0=no damage to plant. In short, it runs like this: as §1
Experiment [4] has as its system Avena fatua (AVEFA). As to the kind of experiment: Example B pre-emergence herbicidal test, AVEFA. Conditions: Avena fatua, 312 h, rate 250 g/ha, evaluated after 13 days, 100=total damage to plant, 0=no damage to plant. The method in brief: as §1
The subject of experiment [5] is Lolium perenne (LOLPE). Kind of experiment: Example B post-emergence herbicidal test, LOLPE. Conditions: Lolium perenne, 312 h, rate 250 g/ha, evaluated after 13 days, scale 0-100, read-out: Post-emergence activity LOLPE (100=total damage to plant; 0=no damage to plant). The method in brief:
(§2)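 Foliar application to 8-day-old pot-grown seedlings in a glasshouse (24/16 °C, 14 h photoperiod, 65% humidity). Spray solution was derived from an acetone/water (50:50) formulation with 0.5% Tween 20. Injury was assessed 13 days later on a 0–100 scale.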

Experiment [6] has as its system Alopecurus myosuroides (ALOMY). Kind of experiment: Example B post-emergence herbicidal test, ALOMY. Particulars: Alopecurus myosuroides, 312 h, rate 250 g/ha, evaluated after 13 days, scale 0-100, read-out: Post-emergence activity ALOMY (100=total damage to plant; 0=no damage to plant). In short, it runs like this: as §2
For experiment [7], the system named is Echinochloa crus-galli (ECHCG). As to the kind of experiment: Example B post-emergence herbicidal test, ECHCG. Particulars: Echinochloa crus-galli, 312 h, rate 250 g/ha, evaluated after 13 days, scale 0-100, read-out: Post-emergence activity ECHCG (100=total damage to plant; 0=no damage to plant). In short, it runs like this:
as §2

In experiment [8] the test system is Avena fatua (AVEFA). As to the kind of experiment: Example B post-emergence herbicidal test, AVEFA. Particulars: Avena fatua, 312 h, rate 250 g/ha, evaluated after 13 days, scale 0-100, read-out: Post-emergence activity AVEFA (100=total damage to plant; 0=no damage to plant). In short, it runs like this:
as §2

Experiment [9] has as its system Winter Wheat variety 'Hereward'. Kind of experiment: Example C crop damage test on Winter Wheat, post-emergence, no safener. Conditions: Triticum aestivum, 312 h, rate 250 g/ha, evaluated after 13 days, read-out: Winter Wheat (Hereward) damage (100=total damage to plant; 0=no damage to plant). How it is done:
Seeds of the Winter Wheat variety ‘Hereward’ were sown in standard soil in pots. After 8 days cultivation under controlled conditions in a glasshouse (at 24/16° C., day/night; 14 hours light; 65% humidity), the plants were sprayed with an aqueous spray solution derived from the formulation of the technical active ingredient in acetone/water (50:50) solution containing 0.5% Tween 20 (polyoxyethelyene sorbitan monolaurate, CAS RN 9005-64-5). The test plants were then grown in a glasshouse under controlled conditions in a glasshouse (at 24/16° C., day/night; 14 hours light; 65% humidity) and watered twice daily. After 13 days for pre and post-emergence, the test was evaluated (100=total damage to plant; 0=no damage to plant).

Experiment [10] relates to Winter Wheat variety 'Hereward' seed treated with cloquintocet mexyl. As to the kind of experiment: Example C crop damage test on Winter Wheat seed treated with safener cloquintocet mexyl, post-emergence. Particulars: rate 250 g/ha, seed treated with cloquintocet mexyl 0.5 grams per kilogram of dry seed, evaluated after 13 days. As for the experimental part:
Seeds of the Winter Wheat variety ‘Hereward’ were seed treated with a wettable powder formulation of the cereal herbicide safener, cloquintocet mexyl, at a rate of 0.5 grams per kilogram of dry seed prior to the initiation of glasshouse testing. One seed was sown per 1.5 inch plastic pot into a sandy loam soil at a depth of 1 cm, 8 days prior to application of the test compounds and was watered and grown under controlled conditions in a glasshouse (at 24/16° C., day/night; 14 hours light; 65% humidity). The plants were sprayed Post-emergence with an aqueous spray solution derived from the formulation of the technical active ingredient in acetone/water (50:50) solution containing 0.5% Tween 20 (polyoxyethelyene sorbitan monolaurate, CAS RN 9005-64-5). The test plants were then grown in a glasshouse under controlled conditions in a glasshouse (at 24/16° C., day/night; 14 hours light; 65% humidity) and watered twice daily. After 13 days for pre and post-emergence, the test was evaluated (100=total damage to plant; 0=no damage to plant).

`Cc1cc(C)c(C2=C(OC(=O)C(C)(C)C)CC(CC3CCOC3)C2=O)c(C)c1` (stereo not drawn) [Compound P7]: the pest or weed control at 250 g/ha came out at 100% in experiment [1]; 100% in experiment [2]; 100% in experiment [3]; 90% in experiment [4]; 100% in experiment [5]; 100% in experiment [6]. Further, the pest or weed control at 250 g/ha in [7] worked out at 90%; in [8], 80%. For the same compound, the crop damage to winter wheat at 250 g/ha in experiment [9] turned out to be 70%. The “Winter Wheat (Hereward) + cloquintocet mexyl damage (100=total damage to plant; 0=no damage to plant)” value in experiment [10] stood at 0.
For `Cc1cc(C)c(C2=C(OC(=O)C(C)(C)C)C/C(=C\C3CCOCC3)C2=O)c(C)c1` [Compound P11], the pest or weed control at 250 g/ha in experiment [1] is 100%; in experiment [2] it was 100%; in [3], 100%; in experiment [4] it was 100%; in [5], 100%; in experiment [6], 90%. For the same compound, the pest or weed control at 250 g/ha amounted to 100% in experiment [7] and 90% in experiment [8]. For the same compound, the crop damage to winter wheat at 250 g/ha in experiment [9] stood at 80%. In [10], the “Winter Wheat (Hereward) + cloquintocet mexyl damage (100=total damage to plant; 0=no damage to plant)” value is recorded as 70.
Take `Cc1cc(C)c(C2=C(OC(=O)C(C)C)CC(CC3CCOC3)C2=O)c(C)c1` (stereo not drawn) [Compound P13]: the pest or weed control at 250 g/ha was 100% in [1]; 100% in [2]; 100% in experiment [3]; 90% in [4]; 100% in experiment [5]; 90% in experiment [6]. Further, the values for the pest or weed control at 250 g/ha in experiment [7] and in experiment [8] were 100% and 90%, respectively. Also, in experiment [9], the crop damage to winter wheat at 250 g/ha was 70%. Moreover, the “Winter Wheat (Hereward) + cloquintocet mexyl damage (100=total damage to plant; 0=no damage to plant)” value in experiment [10] is recorded as 10.
With `CCCCCCC(=O)OC1=C(c2c(C)cc(C)cc2C)C(=O)C(CC2CCOC2)C1` (stereo not drawn) [Compound P16], the pest or weed control at 250 g/ha in [1] amounted to 100%; in experiment [2], 100%; in [3], 100%; in experiment [4], 90%; in [5] it was 100%; in experiment [6] it was 100%. In addition, the pest or weed control at 250 g/ha in experiment [7] and in [8] was 100% in each case. Also, the crop damage to winter wheat at 250 g/ha in experiment [9] was determined as 70%. In addition, the “Winter Wheat (Hereward) + cloquintocet mexyl damage (100=total damage to plant; 0=no damage to plant)” value in experiment [10] was determined as 0.
As to `Cc1cc(C)c(C2=C(OC(=O)c3ccccc3)CC(CC3CCOC3)C2=O)c(C)c1` (stereo not drawn) [Compound P17], the pest or weed control at 250 g/ha in experiment [1] stood at 100%; in experiment [2], 100%; in experiment [3], 90%; in experiment [4] it was 90%; in experiment [5], 100%; in experiment [6], 100%. In addition, the pest or weed control at 250 g/ha in [7] worked out at 100%; in experiment [8] it was 90%. In addition, the crop damage to winter wheat at 250 g/ha in [9] was 70%. Further, in experiment [10], the “Winter Wheat (Hereward) + cloquintocet mexyl damage (100=total damage to plant; 0=no damage to plant)” value stood at 0.
On to `Cc1cc(C)c(C2C(=O)CC(CC3CCOC3C)C2=O)c(C)c1` (stereo not drawn) [Compound T156], for which the pest or weed control at 250 g/ha in experiment [1] amounted to 100%; in experiment [2] it was 80%; in experiment [3], 100%; in experiment [4], 70%; in experiment [5], 100%; in [6] it was 90%. The pest or weed control at 250 g/ha in experiment [7] turned out to be 70%; in [8], 90%.
For the compound `Cc1cc(-c2ccc(C(F)(F)F)cc2)cc(C)c1C1C(=O)CC(CC2CCOC2)C1=O` (stereo not drawn) [Compound T157], the pest or weed control at 250 g/ha in experiment [1] amounted to 10%; in [2], 10%; in experiment [3] it was 40%; in experiment [4], 0%; in experiment [5], 30%; in experiment [6], 30%. Moreover, the pest or weed control at 250 g/ha in [7] is 60%; in [8], 50%.
With `Cc1cc(-c2ccc(F)cc2)cc(C)c1C1C(=O)CC(CC2CCOC2)C1=O` (stereo not drawn) [Compound T158], the pest or weed control at 250 g/ha in experiment [1] was found to be 90%; in experiment [2] it was 80%; in [3] it was 100%; in [4], 70%; in experiment [5], 100%; in experiment [6], 100%. Also, the pest or weed control at 250 g/ha in experiment [7] and in experiment [8] was 100% in each case.
In the case of `Cc1cc(-c2ccccc2)cc(C)c1C1C(=O)CC(CC2CCOC2)C1=O` (stereo not drawn) [Compound T159], the pest or weed control at 250 g/ha in experiment [1] was 70%; in experiment [2], 50%; in experiment [3] it was 100%; in experiment [4], 30%; in experiment [5], 100%; in experiment [6], 90%. In addition, the figures for the pest or weed control at 250 g/ha in experiment [7] and in experiment [8] were 100% and 90%, respectively.
Take `Cc1cc(Br)cc(C)c1C1C(=O)CC(CC2CCOC2)C1=O` (stereo not drawn) [Compound T160]: the pest or weed control at 250 g/ha in experiment [1] came out at 90%; in [2], 30%; in experiment [3] it was 70%; in [4], 40%; in [5] it was 100%; in [6], 40%. For the same compound, the pest or weed control at 250 g/ha stood at 70% in experiment [7] and 60% in [8].
With `Cc1cc(C)c(C2C(=O)CC(CC3CCN(C(=O)C(F)(F)C(F)F)CC3)C2=O)c(C)c1` (stereo not drawn) [Compound T161], the pest or weed control at 250 g/ha in [1] is 90%; in experiment [2], 30%; in [3], 100%; in [4] it was 60%; in [5], 100%; in experiment [6] it was 70%. Also, the pest or weed control at 250 g/ha in experiment [7] and in experiment [8] was 90% each time.
With `Cc1cc(C)c(C2C(=O)CC(CC3CCN(C(=O)C(F)(F)F)C3)C2=O)c(C)c1` (stereo not drawn) [Compound T162], the pest or weed control at 250 g/ha worked out at 70% in experiment [1]; 40% in [2]; 50% in experiment [3]; 50% in experiment [4]; 90% in experiment [5]; 60% in experiment [6]. For the same compound, the pest or weed control at 250 g/ha in experiment [7] came to 70%; in [8], 80%.
Consider `Cc1cc(C)c(C2C(=O)CC(CC3CCN(C(=O)C(F)(F)F)CC3)C2=O)c(C)c1` (stereo not drawn) [Compound T163], for which the pest or weed control at 250 g/ha in experiment [1] stood at 80%; in experiment [2] it was 50%; in [3], 60%; in experiment [4], 60%; in [5] it was 100%; in [6] it was 90%. Moreover, the pest or weed control at 250 g/ha in experiment [7] turned out to be 90%; in experiment [8], 100%.

The values above are taken from patent publication US9096560B2, “5-heterocyclylalkyl-3-hydroxy-2-phenylcyclopent-2-enones as herbicides” (Syngenta Limited, priority 2008, dated 2015).
